Test results: US9492471B2, “Methods of treating a disease or disorder associated with Bruton'S Tyrosine Kinase” (Celgene Avilomics Research, Inc., priority 2013, dated 2016)
Read-outs that look alike come from different tables or passages of the source.

Experiments:
Assay in all cases: HotSpot kinase profiling
Format in all cases: biochemical
[1] = biological target: T1, ERK1 (Homo sapiens, UniProt P27361)
T1 construct: purchased Reaction Biology Corp
Summary of the method: (§1)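 Radio-isotope P81 filtration format. Substrate + required cofactors in reaction buffer, kinase added, 2 h RT. Stop, wash with 0.1% phosphoric acid, detect. % inhibition vs DMSO; mean of duplicates where repeated.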

[2] = biological target: T2, WNK1 (Homo sapiens, UniProt Q9H4A3)
T2 construct: purchased Reaction Biology Corp
T2 sequence (Q9H4A3 whole entry): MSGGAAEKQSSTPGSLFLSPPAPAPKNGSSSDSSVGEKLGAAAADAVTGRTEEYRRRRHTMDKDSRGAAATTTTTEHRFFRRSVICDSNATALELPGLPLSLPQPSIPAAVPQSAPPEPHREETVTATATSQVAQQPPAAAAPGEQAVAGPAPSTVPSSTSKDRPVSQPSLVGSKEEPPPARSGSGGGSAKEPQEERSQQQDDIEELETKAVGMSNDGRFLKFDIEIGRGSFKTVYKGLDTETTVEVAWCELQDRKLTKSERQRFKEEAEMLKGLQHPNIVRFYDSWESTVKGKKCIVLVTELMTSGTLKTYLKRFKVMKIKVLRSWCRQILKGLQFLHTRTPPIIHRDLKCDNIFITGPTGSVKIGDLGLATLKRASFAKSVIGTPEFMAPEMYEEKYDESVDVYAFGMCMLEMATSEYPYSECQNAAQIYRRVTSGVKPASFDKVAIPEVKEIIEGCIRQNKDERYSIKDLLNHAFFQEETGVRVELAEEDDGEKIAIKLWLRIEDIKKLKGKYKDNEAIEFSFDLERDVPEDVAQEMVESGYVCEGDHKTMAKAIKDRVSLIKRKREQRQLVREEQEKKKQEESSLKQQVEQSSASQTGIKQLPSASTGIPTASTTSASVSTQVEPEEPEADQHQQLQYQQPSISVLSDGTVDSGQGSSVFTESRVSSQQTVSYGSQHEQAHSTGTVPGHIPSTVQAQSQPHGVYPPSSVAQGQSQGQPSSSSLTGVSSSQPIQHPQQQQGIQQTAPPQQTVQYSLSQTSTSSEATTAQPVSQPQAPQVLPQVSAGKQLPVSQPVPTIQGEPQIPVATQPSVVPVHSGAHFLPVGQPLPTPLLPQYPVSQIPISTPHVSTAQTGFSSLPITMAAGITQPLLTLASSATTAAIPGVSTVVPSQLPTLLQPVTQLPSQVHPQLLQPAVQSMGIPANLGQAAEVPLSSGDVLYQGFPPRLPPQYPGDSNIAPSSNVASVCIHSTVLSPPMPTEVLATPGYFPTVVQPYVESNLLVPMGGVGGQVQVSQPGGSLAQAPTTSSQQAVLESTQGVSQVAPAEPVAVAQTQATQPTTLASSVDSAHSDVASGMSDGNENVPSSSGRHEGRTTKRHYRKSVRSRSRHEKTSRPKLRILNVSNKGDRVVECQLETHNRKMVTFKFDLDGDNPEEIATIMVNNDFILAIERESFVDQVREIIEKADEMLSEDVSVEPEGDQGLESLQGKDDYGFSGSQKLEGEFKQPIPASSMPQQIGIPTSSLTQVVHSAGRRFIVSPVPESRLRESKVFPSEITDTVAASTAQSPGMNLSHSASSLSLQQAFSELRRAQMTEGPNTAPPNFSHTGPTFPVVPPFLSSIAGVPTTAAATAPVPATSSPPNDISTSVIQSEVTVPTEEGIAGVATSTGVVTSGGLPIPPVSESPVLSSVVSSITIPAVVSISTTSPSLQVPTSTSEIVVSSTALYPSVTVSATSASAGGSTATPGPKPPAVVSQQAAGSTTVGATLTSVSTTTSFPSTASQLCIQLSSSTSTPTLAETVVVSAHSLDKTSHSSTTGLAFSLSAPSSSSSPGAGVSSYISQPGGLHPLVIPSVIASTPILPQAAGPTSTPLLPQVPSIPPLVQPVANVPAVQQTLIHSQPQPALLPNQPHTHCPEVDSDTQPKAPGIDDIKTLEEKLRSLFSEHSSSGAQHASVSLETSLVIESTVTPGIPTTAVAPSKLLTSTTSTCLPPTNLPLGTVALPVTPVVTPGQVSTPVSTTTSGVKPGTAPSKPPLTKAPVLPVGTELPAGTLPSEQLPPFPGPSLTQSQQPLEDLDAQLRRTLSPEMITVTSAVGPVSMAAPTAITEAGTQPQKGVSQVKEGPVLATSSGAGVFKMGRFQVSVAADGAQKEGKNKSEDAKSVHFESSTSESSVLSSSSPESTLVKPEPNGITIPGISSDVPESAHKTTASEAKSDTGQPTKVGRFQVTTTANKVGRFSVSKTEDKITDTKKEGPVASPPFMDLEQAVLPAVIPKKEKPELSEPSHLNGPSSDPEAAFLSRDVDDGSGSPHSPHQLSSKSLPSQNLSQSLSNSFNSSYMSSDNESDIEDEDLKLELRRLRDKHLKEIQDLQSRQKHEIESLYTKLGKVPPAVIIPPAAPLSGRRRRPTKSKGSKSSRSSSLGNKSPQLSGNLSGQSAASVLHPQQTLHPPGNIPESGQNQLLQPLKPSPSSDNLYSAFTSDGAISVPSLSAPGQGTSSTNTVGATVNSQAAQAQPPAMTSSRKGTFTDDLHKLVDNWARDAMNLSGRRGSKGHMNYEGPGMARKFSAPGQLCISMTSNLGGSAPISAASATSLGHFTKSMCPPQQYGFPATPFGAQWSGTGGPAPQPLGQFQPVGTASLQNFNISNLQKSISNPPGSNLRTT
Summary of the method: as §1

[3] = biological target: T3, Aurora C (Homo sapiens, UniProt Q9UQB9)
T3 construct: purchased Reaction Biology Corp
T3 sequence (Q9UQB9 1-309): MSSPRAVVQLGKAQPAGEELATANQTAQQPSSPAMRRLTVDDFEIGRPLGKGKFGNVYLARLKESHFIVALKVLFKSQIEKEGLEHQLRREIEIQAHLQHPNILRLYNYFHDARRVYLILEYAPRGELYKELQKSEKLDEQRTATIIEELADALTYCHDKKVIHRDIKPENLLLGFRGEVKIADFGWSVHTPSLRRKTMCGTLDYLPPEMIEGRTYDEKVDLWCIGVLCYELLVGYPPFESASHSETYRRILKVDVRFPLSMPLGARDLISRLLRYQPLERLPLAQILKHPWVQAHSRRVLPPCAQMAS
Summary of the method: as §1

[4] = biological target: T4, FLT3 (Homo sapiens, UniProt P36888)
T4 construct: purchased Reaction Biology Corp
T4 sequence (P36888 27-993): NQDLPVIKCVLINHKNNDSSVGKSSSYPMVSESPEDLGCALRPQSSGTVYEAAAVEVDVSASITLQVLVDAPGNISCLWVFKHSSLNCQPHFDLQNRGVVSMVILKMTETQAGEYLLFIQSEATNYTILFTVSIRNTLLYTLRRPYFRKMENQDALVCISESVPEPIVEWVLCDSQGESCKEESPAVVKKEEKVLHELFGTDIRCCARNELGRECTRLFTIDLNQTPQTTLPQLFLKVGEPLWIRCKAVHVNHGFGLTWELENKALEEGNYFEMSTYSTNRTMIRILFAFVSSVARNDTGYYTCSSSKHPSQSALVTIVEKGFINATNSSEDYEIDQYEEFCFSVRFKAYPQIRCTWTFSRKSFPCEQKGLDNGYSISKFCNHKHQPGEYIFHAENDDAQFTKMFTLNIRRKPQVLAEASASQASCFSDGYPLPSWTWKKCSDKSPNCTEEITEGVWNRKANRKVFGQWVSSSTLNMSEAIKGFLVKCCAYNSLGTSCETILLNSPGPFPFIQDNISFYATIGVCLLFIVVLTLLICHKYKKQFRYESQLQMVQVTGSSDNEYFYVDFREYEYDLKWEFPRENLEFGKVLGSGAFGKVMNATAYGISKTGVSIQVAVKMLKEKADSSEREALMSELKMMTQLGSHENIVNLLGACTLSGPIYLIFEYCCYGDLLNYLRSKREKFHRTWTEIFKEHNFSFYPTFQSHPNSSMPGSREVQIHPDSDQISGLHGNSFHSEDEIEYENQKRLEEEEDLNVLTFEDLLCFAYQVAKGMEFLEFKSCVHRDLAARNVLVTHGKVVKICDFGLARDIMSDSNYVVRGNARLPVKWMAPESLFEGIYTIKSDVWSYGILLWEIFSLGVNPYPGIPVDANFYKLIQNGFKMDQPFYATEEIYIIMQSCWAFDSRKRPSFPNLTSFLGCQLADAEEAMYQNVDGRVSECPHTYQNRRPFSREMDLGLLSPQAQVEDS
Summary of the method: as §1

[5] = biological target: T5, PKG1a (Homo sapiens, UniProt Q13976)
T5 construct: purchased Reaction Biology Corp
T5 sequence (Q13976 1-671): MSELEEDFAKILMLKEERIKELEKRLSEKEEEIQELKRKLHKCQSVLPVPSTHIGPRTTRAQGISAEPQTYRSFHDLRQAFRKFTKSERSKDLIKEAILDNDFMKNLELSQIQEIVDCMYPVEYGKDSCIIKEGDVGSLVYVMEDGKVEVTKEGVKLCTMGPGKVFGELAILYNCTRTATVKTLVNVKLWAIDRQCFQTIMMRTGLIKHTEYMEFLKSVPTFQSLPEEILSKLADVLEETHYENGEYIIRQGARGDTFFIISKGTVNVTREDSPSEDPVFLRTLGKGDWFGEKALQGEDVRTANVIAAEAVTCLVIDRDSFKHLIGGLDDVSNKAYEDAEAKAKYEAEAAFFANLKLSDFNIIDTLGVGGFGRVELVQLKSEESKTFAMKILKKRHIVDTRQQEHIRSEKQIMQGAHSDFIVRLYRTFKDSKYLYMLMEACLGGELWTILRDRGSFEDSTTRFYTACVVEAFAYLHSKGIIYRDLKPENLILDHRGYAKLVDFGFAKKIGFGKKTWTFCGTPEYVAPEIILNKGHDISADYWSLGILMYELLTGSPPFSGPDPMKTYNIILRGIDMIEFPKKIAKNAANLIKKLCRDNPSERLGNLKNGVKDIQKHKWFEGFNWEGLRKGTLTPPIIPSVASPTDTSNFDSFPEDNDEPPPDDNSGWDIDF
Summary of the method: as §1

[6] = read-out: % Enzyme Activity (relative to DMSO controls) Run 1
[7] = read-out: % Enzyme Activity (relative to DMSO controls) Run 2

T1 sequence (P27361 whole entry): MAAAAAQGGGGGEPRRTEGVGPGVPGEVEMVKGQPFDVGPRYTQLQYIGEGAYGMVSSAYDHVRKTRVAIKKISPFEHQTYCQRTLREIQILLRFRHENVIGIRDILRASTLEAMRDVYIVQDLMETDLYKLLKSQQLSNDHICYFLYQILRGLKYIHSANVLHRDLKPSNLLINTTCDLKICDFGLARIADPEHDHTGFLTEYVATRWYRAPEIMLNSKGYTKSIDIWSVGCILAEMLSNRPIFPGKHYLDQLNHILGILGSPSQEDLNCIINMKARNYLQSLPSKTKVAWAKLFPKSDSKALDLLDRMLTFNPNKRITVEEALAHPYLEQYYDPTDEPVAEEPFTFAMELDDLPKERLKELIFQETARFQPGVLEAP

`C=CC(=O)Nc1cccc(Nc2nc(Nc3ccc(OCCOC)c(F)c3)ncc2F)c1` [Compound 2] gave an inhibition at 3 µM [1] of 1.32%, a remaining activity at 3 µM [1, 6] of 97.4% and a remaining activity at 3 µM [1, 7] of 99.9%. It also gave an inhibition at 3 µM [2] of -12.1%, a remaining activity at 3 µM [2, 6] of 112% and a remaining activity at 3 µM [2, 7] of 112%. It also gave an inhibition at 3 µM [3] of 72%, a remaining activity at 3 µM [3, 6] of 26.2% and a remaining activity at 3 µM [3, 7] of 29.8%. It also gave an inhibition at 3 µM [4] of 96.8%, a remaining activity at 3 µM [4, 6] of 3.19% and a remaining activity at 3 µM [4, 7] of 3.25%. The inhibition at 3 µM [5] was 8.73%, the remaining activity at 3 µM [5, 6] was 88% and the remaining activity at 3 µM [5, 7] was 94.5%.
